Measured values reported in patent publication US10472341B2, “Bicyclic tetrahydrothiazepine derivatives useful for the treatment of neoplastic and/or infectious diseases” (APEIRON BIOLOGICS AG, priority 2015, dated 2019).
Where a name gives a salt, the structure may show the parent alone.

System: Splenocytes of BL6 mice
Test: Murine splenocytes stimulated with anti-CD3 and anti-CD28 antibodies: IL-2, CD25 on CD4 and CD8 T cells
Assay type: cell-based, mouse
Settings: for production of cytokine: murine splenocytes stimulated with anti-CD3 and anti-CD28; for enhancement of cytokine production: unstimulated murine splenocytes

Row | Structure (SMILES) | CD25+ CD4 T cells (aCD3/28 stim, 0.3 μM) [% gated] | CD25+ CD8 T cells (aCD3/28 stim, 0.3 μM) [% gated] | IL-2 production (aCD3/28 stim, 0.3 μM) [ng/mL] | CD25+ CD4 T cells (aCD3/28 stim, 1 μM) [% gated] | CD25+ CD8 T cells (aCD3/28 stim, 1 μM) [% gated] | IL-2 production (aCD3/28 stim, 1 μM) [ng/mL] | CD25+ CD4 T cells (aCD3/28 stim, 3 μM) [% gated] | CD25+ CD8 T cells (aCD3/28 stim, 3 μM) [% gated] | IL-2 production (aCD3/28 stim, 3 μM) [ng/mL] | CD25+ CD4 T cells (aCD3/28 stim, 10 μM) [% gated] | CD25+ CD8 T cells (aCD3/28 stim, 10 μM) [% gated] | IL-2 production (aCD3/28 stim, 10 μM) [ng/mL] | CD25+ CD4 T cells (aCD3/28 stim, 30 μM) [% gated] | CD25+ CD8 T cells (aCD3/28 stim, 30 μM) [% gated] | IL-2 production (aCD3/28 stim, 30 μM) [ng/mL] | production of cytokine | CD25+ CD4 T cells (unstim, 0.3 μM) [% gated] | CD25+ CD8 T cells (unstim, 0.3 μM) [% gated] | IL-2 production (unstim, 0.3 μM) [ng/mL] | CD25+ CD4 T cells (unstim, 1 μM) [% gated] | other results
1 | Cl.N[C@H]1CS(=O)(=O)c2cc(F)c(C(=O)NCCCC(F)(F)F)cc2N(Cc2ccc(Cl)cc2)C1=O [Example 70, (3R)-3-amino-5-[(4-chlorophenyl)methyl]-8-fluoro-1,1,4-trioxo-N-(4,4,4-trifluoro-butyl)-2,3,4,5-tetrahydro-1λ^6,5-benzothiazepine-7-carboxamide hydrochloride] | 8.10 | 10.10 | 0.77 | 9.28 | 10.41 | 0.91 | 11.88 | 14.58 | 1.54 | 13.41 | 16.68 | 1.90 | 11.94 | 17.50 | 1.71 | strongly enhanced production of cytokine | 0.55 | 0.61 | 0.00 | 0.45 | CD25+ CD8 T cells (unstim, 1 μM): 0.65 % gated; IL-2 production (unstim, 1 μM): 0.00 ng/mL; CD25+ CD4 T cells (unstim, 3 μM): 0.48 % gated; CD25+ CD8 T cells (unstim, 3 μM): 0.60 % gated; IL-2 production (unstim, 3 μM): 0.00 ng/mL; CD25+ CD4 T cells (unstim, 10 μM): 0.45 % gated; CD25+ CD8 T cells (unstim, 10 μM): 0.60 % gated; IL-2 production (unstim, 10 μM): 0.00 ng/mL; CD25+ CD4 T cells (unstim, 30 μM): 0.47 % gated; CD25+ CD8 T cells (unstim, 30 μM): 0.64 % gated; IL-2 production (unstim, 30 μM): 0.00 ng/mL; enhancement of cytokine production: such effect was not detected on unstimulated cells
2 | N[C@H]1CS(=O)(=O)c2cc(F)c(C(=O)NC3CC3(F)F)cc2N(Cc2ccc(Cl)cc2)C1=O (stereo partly drawn) [Example 1, (3R)-3-amino-5-[(4-chlorophenyl)methyl]-N-(2,2-difluorocyclopropyl)-8-fluoro-1,1,4-trioxo-2,3,4,5-tetrahydro-1λ^6,5-benzothiazepine-7-carboxamide hydrochloride] | 7.48 | 5.86 | 0.29 | 7.42 | 7.17 | 0.45 | 9.19 | 10.90 | 0.61 | 12.15 | 15.76 | 1.46 | 12.01 | 16.51 | 1.71 | strongly enhanced production of cytokine | 0.50 | 0.61 | 0.00 | 0.50 | CD25+ CD8 T cells (unstim, 1 μM): 0.65 % gated; IL-2 production (unstim, 1 μM): 0.00 ng/mL; CD25+ CD4 T cells (unstim, 3 μM): 0.42 % gated; CD25+ CD8 T cells (unstim, 3 μM): 0.61 % gated; IL-2 production (unstim, 3 μM): 0.00 ng/mL; CD25+ CD4 T cells (unstim, 10 μM): 0.41 % gated; CD25+ CD8 T cells (unstim, 10 μM): 0.62 % gated; IL-2 production (unstim, 10 μM): 0.00 ng/mL; CD25+ CD4 T cells (unstim, 30 μM): 0.38 % gated; CD25+ CD8 T cells (unstim, 30 μM): 0.56 % gated; IL-2 production (unstim, 30 μM): 0.00 ng/mL; enhancement of cytokine production: such effect was not detected on unstimulated cells
